Experimental data from article PMC9696832, “Pyrazole-Based Thrombin Inhibitors with a Serine-Trapping Mechanism of Action: Synthesis and Biological Activity” (Pharmaceuticals, 2022).
Values joined by “and” are separate entries in the source; they are usually repeats but may differ in a detail not shown here. Equal entries are not always repeated. Where two headings read alike, the source gives them in different places.

Key:
human α-thrombin [1] = target: T1, human α-thrombin (Homo sapiens, UniProt P00734); experiment: Serine protease inhibition assay, fluorogenic substrate: thrombin; assay type: biochemical; details: for IC50: read-out: Serine Protease IC50 ± SD, Thrombin
T1 construct: human α-thrombin (active) protein; purchased antibodies-online ABIN2127880
Description: Serine protease inhibition assays. The inhibitory activity of synthesized compounds towards thrombin, FXIIa, FXa, FXIa, plasmin, plasma kallikrein, chymotrypsin, and trypsin was measured by quantifying the hydrolysis rate of the fluorogenic substrate as reported previously [14, 17]. Briefly, the activity was tested in buffer (10 mM Tris-Cl, 150 mM NaCl, 10 mM MgCl2·6H2O, 1 mM CaCl2·2H2O, 0.1% w/v BSA, 0.01% v/v Triton-X100, pH = 7.4) utilizing clear flat-bottom, black polystyrene 96 well-plates. […] The fluorogenic substrate solution was added into the wells followed by the addition of 2 µL of test-compounds solution, and the reaction was triggered by addition of the enzyme solution (final testing volume–152 µL). In case of blank (substrate + buffer) and control (substrate + enzyme) wells, 2 µL of DMSO was added instead of the test-compounds’ solution. […] To derive IC50 values, endpoint RFU (single fluorescence reading) was used. Sigmoidal curves were prepared in GraphPad Prism software and IC50 values were derived from the fitted curves [14, 17].

human β-FXIIa = target: T2, human β-FXIIa (Homo sapiens, UniProt P00748); experiment: Serine protease inhibition assay, fluorogenic substrate: FXIIa; assay type: biochemical; details: read-out: Serine Protease IC50 ± SD, FXIIa
T2 construct: human β-FXIIa, HFXIIAB; purchased Molecular Innovations HFXIIAB
Description: (§1) Serine protease inhibition assays. The inhibitory activity of synthesized compounds towards thrombin, FXIIa, FXa, FXIa, plasmin, plasma kallikrein, chymotrypsin, and trypsin was measured by quantifying the hydrolysis rate of the fluorogenic substrate as reported previously. Briefly, the activity was tested in buffer (10 mM Tris-Cl, 150 mM NaCl, 10 mM MgCl2·6H2O, 1 mM CaCl2·2H2O, 0.1% w/v BSA, 0.01% v/v Triton-X100, pH = 7.4) utilizing clear flat-bottom, black polystyrene 96 well-plates. […] Dilutions of test-compounds ranging from 2 nM to 32 µM (final concentrations) in DMSO were prepared. The fluorogenic substrate solution was added into the wells followed by the addition of 2 µL of test-compounds solution, and the reaction was triggered by addition of the enzyme solution (final testing volume–152 µL). In case of blank (substrate + buffer) and control (substrate + enzyme) wells, 2 µL of DMSO was added instead of the test-compounds’ solution. Fluorescence intensity was measured with Microplate Reader Mithras LB 940 (Berthold Technologies, excitation at 355 nm, emission at 460 nm) for a period of 1 h (thrombin, FXIIa, FXa, FXIa, and trypsin), 30 min (plasma kallikrein, chymotrypsin), or 15 min (plasmin) with a read every minute. The reactions were performed at 25 °C. To derive IC50 values, endpoint RFU (single fluorescence reading) was used. Sigmoidal curves were prepared in GraphPad Prism software and IC50 values were derived from the fitted curves.

human Factor XIa = target: T3, human Factor XIa (Homo sapiens, UniProt P03951); experiment: Serine protease inhibition assay, fluorogenic substrate: FXIa; assay type: biochemical
T3 construct: human Factor XIa, HFXIA; purchased Molecular Innovations HFXIA
Description: as §1

human Factor Xa = target: T4, human Factor Xa (Homo sapiens, UniProt P00742); experiment: Serine protease inhibition assay, fluorogenic substrate: FXa; assay type: biochemical; details: for IC50: screened at 5 μM, IC50 in triplicate for actives, [S]0 = 25 µM, read-out: Serine Protease IC50 ± SD, FXa
T4 construct: human Factor Xa, HFXA; purchased Molecular Innovations HFXA
Description: as §1

human plasmin = target: T5, human plasmin (Homo sapiens, UniProt P00747); experiment: Serine protease inhibition assay, fluorogenic substrate: plasmin; assay type: biochemical; details: screened at 5 μM; [S]0 = 25 µM; read-out: Serine Protease IC50 ± SD, Plasmin
T5 construct: human plasmin, >95% purity; purchased Innovative Research
Description: as §1

human plasma kallikrein = target: T6, human plasma kallikrein (Homo sapiens, UniProt P03952); experiment: Serine protease inhibition assay, fluorogenic substrate: plasma kallikrein; assay type: biochemical; details: screened at 5 μM; IC50 in triplicate for actives; [S]0 = 25 µM; read-out: Serine Protease IC50 ± SD, PK (plasma kallikrein)
T6 construct: human plasma kallikrein, >94% purity; purchased Innovative Research
Description: as §1

porcine trypsin = target: T7, porcine trypsin (Sus scrofa, UniProt P00761); experiment: Serine protease inhibition assay, fluorogenic substrate: trypsin; assay type: biochemical; details: screened at 5 μM; [S]0 = 25 µM; read-out: Serine Protease IC50 ± SD, Trypsin
T7 construct: porcine trypsin; Merck; purchased Merck
Description: as §1

human chymotrypsin = experiment: Serine protease inhibition assay, fluorogenic substrate: chymotrypsin; assay type: biochemical; details: for IC50: screened at 5 μM, IC50 in triplicate for actives, [S]0 = 25 µM, read-out: Serine Protease IC50 ± SD, Chymotrypsin
Description: as §1

human pooled plasma [2] = experiment: In vitro plasma coagulation assay (aPTT); assay type: biochemical; details: tested at 200 μM
Description: (§2) In vitro plasma coagulation assays (aPTT and PT). All measurements were performed using commercially available citrated (3.8%) human pooled plasma (Dunn Labortechnik GmbH, Germany) on a semi-automated coagulometer (Thrombotimer-2, Behnk Elektronik, Germany) according to the manufacturer instructions as previously reported. For aPTT measurement, plasma (100 μL) was placed into the incubation cuvettes of the instrument and incubated for 2 min at 37 °C. Then, test compound solution (10 μL) or solvent (DMSO, 10 μL) was added with a pipette. After 1 min of incubation, 100 μL of prewarmed (37 °C) aPTT reagent (Convergent Technologies, Germany) was added and incubated for additional 2 min. The cuvettes were transferred to a measuring position, the coagulation was initiated by addition of 100 μL of CaCl2 solution (25 mM, prewarmed at 37 °C, Convergent Technologies, Germany) and the clotting time was recorded. For PT assays, plasma (100 μL) was incubated for 2 min at 37 °C. Then, test compound solution (10 μL) or solvent (DMSO, 10 μL) was added with a pipette. After 3 min of incubation, the cuvettes were transferred to a measuring position, the coagulation was initiated by addition of 100 μL of PT assay reagent already containing CaCl2 (prewarmed at 37 °C, Biolabo, France) and the clotting time was recorded.

human pooled plasma [3] = experiment: In vitro plasma coagulation assay (PT); assay type: biochemical; details: tested at 200 μM
Description: as §2

human α-thrombin [4] = target: T1, human α-thrombin; experiment: Mass-shift assay of the covalent thrombin-inhibitor complex by LC/ESI-MS; details: 79 μM inhibitor, preincubated 15 min, ESI(+); corresponds to pivaloyl moiety
Description: Analysis of the covalent thrombin-inhibitor complex by LC/ESI-MS. The analysis of covalent thrombin-inhibitor complex was performed utilizing LC/ESI-MS as reported previously with variations. Briefly, 2 µL of the stock solution (128 µM) of human α-thrombin (active) protein (ABIN2127880, >95% purity; antibodies-online) were diluted with 68 µL of purified water. […] Reversed phase liquid chromatography was performed using a Discovery BIO Wide Pore C5 column (100 × 2.1 mm, 3 µm particle size, 300 Å pore size) from Supelco (Bellefonte, PA, USA). For chromatographic analysis of the sample solutions, 0.1% formic acid in purified water (A) and 0.1% formic acid in acetonitrile (B) were used as mobile phase. The following gradient of 15 min in total was applied: starting with 5% B, B is increased up to 40% within 3 min. After holding 40% B for 1.5 min, B is decreased to 5% within 0.5 min and kept at 5% for 1 min. B is then increased to 95% within 4 min and kept at this value for 1 min. After decreasing B to 5% within 1 min, this ratio is kept for 3 min. […] The enzyme-inhibitor complex was analyzed in the positive ion mode using the following ESI-MS parameters: The mass range was set to m/z 1000–4000, nebulizer gas (nitrogen) was 1.6 bar, dry gas (nitrogen) was 9.0 L/min, dry gas temperature was 200 °C, Funnel 1 RF was 450 V, pre pulse storage time was 30 µs and transfer time was 100 µs. […]

[5] = [S]0 = 25 µM Boc-Val-Pro-Arg-AMC, Km = 18 ± 1 µM, triplicate, 25 °C
[6] = screened at 5 μM, IC50 in triplicate for actives, [S]0 = 25 µM, read-out: Serine Protease IC50 ± SD, FXIa

T7 sequence (P00761 9-231): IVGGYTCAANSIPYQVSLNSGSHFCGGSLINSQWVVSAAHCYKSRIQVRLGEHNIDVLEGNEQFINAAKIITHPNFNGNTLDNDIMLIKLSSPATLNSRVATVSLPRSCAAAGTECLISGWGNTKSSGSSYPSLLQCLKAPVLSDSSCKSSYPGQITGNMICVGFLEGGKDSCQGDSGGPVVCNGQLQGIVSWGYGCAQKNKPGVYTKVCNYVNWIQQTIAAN
T5 sequence (P00747 581-810 limits assumed): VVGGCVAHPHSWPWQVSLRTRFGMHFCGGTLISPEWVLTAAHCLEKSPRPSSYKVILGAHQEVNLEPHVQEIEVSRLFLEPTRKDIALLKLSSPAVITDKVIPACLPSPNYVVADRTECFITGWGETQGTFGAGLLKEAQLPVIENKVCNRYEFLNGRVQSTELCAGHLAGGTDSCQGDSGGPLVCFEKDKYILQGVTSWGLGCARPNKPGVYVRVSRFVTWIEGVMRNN
T5 sequence (P00747 97-580 limits assumed): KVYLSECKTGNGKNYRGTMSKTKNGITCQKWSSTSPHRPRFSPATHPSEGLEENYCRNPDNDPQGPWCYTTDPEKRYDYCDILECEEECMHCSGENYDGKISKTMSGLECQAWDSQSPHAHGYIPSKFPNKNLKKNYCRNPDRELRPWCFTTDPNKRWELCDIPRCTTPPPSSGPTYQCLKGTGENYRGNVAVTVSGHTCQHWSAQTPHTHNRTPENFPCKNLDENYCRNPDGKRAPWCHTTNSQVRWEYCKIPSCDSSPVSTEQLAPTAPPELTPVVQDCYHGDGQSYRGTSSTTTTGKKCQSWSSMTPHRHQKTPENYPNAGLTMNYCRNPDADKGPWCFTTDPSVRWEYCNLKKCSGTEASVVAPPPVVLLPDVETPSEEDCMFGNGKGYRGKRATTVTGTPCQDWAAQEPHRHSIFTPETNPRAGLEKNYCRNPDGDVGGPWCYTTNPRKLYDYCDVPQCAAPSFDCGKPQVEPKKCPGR
T4 sequence (P00742 235-488 limits assumed): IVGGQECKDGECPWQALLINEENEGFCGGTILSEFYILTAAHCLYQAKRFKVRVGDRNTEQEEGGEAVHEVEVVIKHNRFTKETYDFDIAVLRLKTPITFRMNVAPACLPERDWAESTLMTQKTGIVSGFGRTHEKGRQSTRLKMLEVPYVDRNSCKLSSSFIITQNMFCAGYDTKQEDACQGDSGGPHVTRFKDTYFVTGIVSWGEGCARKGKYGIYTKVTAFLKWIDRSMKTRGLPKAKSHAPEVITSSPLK
T4 sequence (P00742 41-179 limits assumed): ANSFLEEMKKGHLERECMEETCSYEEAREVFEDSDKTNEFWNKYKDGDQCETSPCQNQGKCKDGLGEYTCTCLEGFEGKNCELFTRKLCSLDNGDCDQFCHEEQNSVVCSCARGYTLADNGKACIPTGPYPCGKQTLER
T3 sequence (P03951 388-625 limits assumed): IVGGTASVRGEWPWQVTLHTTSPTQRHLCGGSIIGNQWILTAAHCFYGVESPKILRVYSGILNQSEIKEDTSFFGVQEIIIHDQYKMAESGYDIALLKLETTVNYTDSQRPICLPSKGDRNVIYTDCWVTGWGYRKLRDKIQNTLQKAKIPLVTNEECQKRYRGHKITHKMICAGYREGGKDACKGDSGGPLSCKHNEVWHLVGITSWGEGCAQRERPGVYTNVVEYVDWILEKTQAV
T3 sequence (P03951 19-387 limits assumed): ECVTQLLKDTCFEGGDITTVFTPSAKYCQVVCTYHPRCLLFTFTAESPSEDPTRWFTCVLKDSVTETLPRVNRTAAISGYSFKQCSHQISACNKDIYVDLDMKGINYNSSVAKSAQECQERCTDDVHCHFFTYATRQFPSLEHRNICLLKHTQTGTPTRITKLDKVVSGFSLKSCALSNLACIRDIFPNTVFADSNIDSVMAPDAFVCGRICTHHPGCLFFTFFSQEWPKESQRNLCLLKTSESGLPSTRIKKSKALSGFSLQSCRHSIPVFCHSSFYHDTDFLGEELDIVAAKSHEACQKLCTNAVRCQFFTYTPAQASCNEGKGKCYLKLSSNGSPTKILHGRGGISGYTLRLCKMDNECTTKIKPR
T2 sequence (P00748 373-615 limits assumed, other chains not shown): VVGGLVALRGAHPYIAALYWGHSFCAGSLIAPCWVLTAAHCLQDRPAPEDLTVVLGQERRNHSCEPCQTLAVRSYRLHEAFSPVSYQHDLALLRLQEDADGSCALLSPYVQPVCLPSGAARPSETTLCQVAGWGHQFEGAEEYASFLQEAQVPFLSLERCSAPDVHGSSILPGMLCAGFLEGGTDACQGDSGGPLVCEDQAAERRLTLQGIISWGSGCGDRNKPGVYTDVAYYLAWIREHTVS
T6 sequence (P03952 391-638 limits assumed): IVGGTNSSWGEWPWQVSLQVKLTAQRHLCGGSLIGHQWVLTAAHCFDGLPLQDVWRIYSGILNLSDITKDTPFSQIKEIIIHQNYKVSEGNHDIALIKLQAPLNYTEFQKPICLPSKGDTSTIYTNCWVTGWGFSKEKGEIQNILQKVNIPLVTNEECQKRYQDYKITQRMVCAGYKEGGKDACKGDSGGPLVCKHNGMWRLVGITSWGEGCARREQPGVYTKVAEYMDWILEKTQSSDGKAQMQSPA
T6 sequence (P03952 20-390 limits assumed): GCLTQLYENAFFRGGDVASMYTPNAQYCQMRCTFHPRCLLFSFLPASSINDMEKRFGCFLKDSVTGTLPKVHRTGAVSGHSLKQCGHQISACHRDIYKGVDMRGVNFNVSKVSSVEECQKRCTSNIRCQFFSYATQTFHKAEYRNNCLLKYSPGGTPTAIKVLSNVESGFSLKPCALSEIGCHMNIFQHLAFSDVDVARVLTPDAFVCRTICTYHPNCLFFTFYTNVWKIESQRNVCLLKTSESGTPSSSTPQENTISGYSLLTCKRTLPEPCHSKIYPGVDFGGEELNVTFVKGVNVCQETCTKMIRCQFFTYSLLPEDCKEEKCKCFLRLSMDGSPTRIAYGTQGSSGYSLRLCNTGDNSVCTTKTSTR

IC50 (human α-thrombin [1]; [5]) [µM]	IC50 (human β-FXIIa) [µM]	IC50 (human Factor XIa; read-out: FXIa IC50) [µM]	IC50 (human Factor XIa; [6]) [µM]	inhibition at 5 µM (human Factor Xa; at 5 μM) [%]	IC50 (human Factor Xa) [µM]	IC50 (human plasmin) [µM]	IC50 (human plasma kallikrein) [µM]	IC50 (porcine trypsin) [µM]	IC50 (human chymotrypsin) [µM]	fold more potent thrombin inhibitor than 3-phenyl-substituted analog 24g (human α-thrombin [1]; IC50 16 nM vs. 419) [fold]	mass-shift of thrombin after incubation with inhibitor (Δm) (human α-thrombin [4])	melting point [°C]	IC50 (human α-thrombin [1]) [µM]	Compound	aPTT, fold increase compared to DMSO (human pooled plasma [2]) [fold]	PT, fold increase compared to DMSO (human pooled plasma [3]) [fold]	fold higher dose for 50% inhibition of chymotrypsin than for thrombin (human chymotrypsin; selectivity chymotrypsin vs thrombin) [fold]
0.018 ± 0.001	> 5	1	1.02 ± 0.09	54	~5	> 5	0.639 ± 0.156	> 5	0.242 ± 0.013					O=C(c1ccccc1)n1nc(-c2cccnc2)cc1NCc1ccc(Cl)s1 [compound 25, (5-{[(5-chlorothiophen-2-yl)methyl]amino}-3-(pyridin-3-yl)-1H-pyrazol-1-yl)(phenyl)methanone]	1.1	1.2	
0.016 ± 0.001	> 5		> 5		> 5	> 5	> 5	> 5	0.875 ± 0.059	26	84.5 Da and 84.53 Da	96 to 97		CC(C)(C)C(=O)n1nc(-c2cccnc2)cc1NCc1ccc(Cl)s1 [24e, 1-(5-{[(5-chlorothiophen-2-yl)methyl]amino}-3-(pyridin-3-yl)-1H-pyrazol-1-yl)-2,2-dimethylpropan-1-one]	1.1	1.1	55
0.08 ± 0.002	> 5		> 5		> 5	> 5	> 5	> 5	> 5					CC(C)(C)C(=O)n1nc(-c2ccccc2)c(F)c1NCc1ccc(Cl)s1 [34a, 1-(5-(((5-chlorothiophen-2-yl)methyl)amino)-4-fluoro-3-phenyl-1H-pyrazol-1-yl)-2,2-dimethylpropan-1-one]	1.0	1.1	
	> 5											252	> 5	O=c1c2ccccc2n(Cc2cccc3ccccc23)c2cc(-c3cccnc3)nn12 [10c, 4-[(naphthalen-1-yl)methyl]-2-(pyridin-3-yl)pyrazolo[5,1-b]quinazolin-9(4H)-one]			
	> 5		> 5		> 5	> 5	> 5	> 5	1.15 ± 0.11				0.071 ± 0.003	O=C(c1ccccc1)n1nc(-c2ccccc2)c(F)c1NCc1ccc(Cl)s1 [34b, (5-(((5-chlorothiophen-2-yl)methyl)amino)-4-fluoro-3-phenyl-1H-pyrazol-1-yl)(phenyl)methanone]	1.0	1.1	
